Measurements published in PubChem BioAssay (NCI).
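At the GI50, growth is halved. TGI is the concentration that stops growth completely.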

Tests used:
Experiment in all cases: growth of human tumour cells (NCI), 384-well format
NCI-H322M lung = system: NCI-H322M lung
SK-OV-3 ovarian = system: SK-OV-3 ovarian
CCRF-CEM leukemia = system: CCRF-CEM leukemia
EKVX NSCLC = system: EKVX NSCLC
ACHN renal = system: ACHN renal
SF-268 CNS = system: SF-268 CNS
HCT-116 colon = system: HCT-116 colon
SF-295 CNS = system: SF-295 CNS
RXF 393 renal = system: RXF 393 renal
MDA-MB-231 breast = system: MDA-MB-231 breast
TK-10 renal = system: TK-10 renal
OVCAR-5 ovarian = system: OVCAR-5 ovarian
BT-549 breast = system: BT-549 breast

Q: With `Cc1ccc(S(=O)(=O)Cc2nc(-c3ccc(C(=O)NCc4cccnc4)cc3)oc2C)cc1` as the compound, how does the GI50 (NCI-H322M lung) read?
A: Its GI50 is less than 10 nM.

Q: What about the TGI (NCI-H322M lung) of the same compound?
A: Its TGI is less than 10 nM.

Q: What about the GI50 (SK-OV-3 ovarian) of the same compound?
A: Its GI50 is less than 10 nM.

Q: What about the TGI (SK-OV-3 ovarian) of the same compound?
A: Its TGI is less than 10 nM.

Q: And the GI50 (CCRF-CEM leukemia)?
A: The GI50 was less than 10 nM.

Q: What about the TGI (CCRF-CEM leukemia) of the same compound?
A: Its TGI is less than 10 nM.

Q: And the GI50 (EKVX NSCLC)?
A: Its GI50 is less than 10 nM.

Q: And the TGI (EKVX NSCLC)?
A: Its TGI is 25.1 nM.

Q: And the GI50 (ACHN renal)?
A: Its GI50 is 12.5 nM.

Q: And the TGI (ACHN renal)?
A: The TGI was 28.7 nM.

Q: What about the GI50 (SF-268 CNS) of the same compound?
A: The GI50 was less than 10 nM.

Q: What about the TGI (SF-268 CNS) of the same compound?
A: Its TGI is 12.9 nM.

Q: And the GI50 (HCT-116 colon)?
A: The GI50 was less than 10 nM.

Q: What about the TGI (HCT-116 colon) of the same compound?
A: Its TGI is less than 10 nM.

Q: And the GI50 (SF-295 CNS)?
A: The GI50 was 14.1 nM.

Q: What about the TGI (SF-295 CNS) of the same compound?
A: Its TGI is 28 nM.

Q: And the GI50 (RXF 393 renal)?
A: Its GI50 is 16.9 nM.

Q: What about the TGI (RXF 393 renal) of the same compound?
A: Its TGI is 33.4 nM.

Q: What about the GI50 (MDA-MB-231 breast) of the same compound?
A: The GI50 was 39.4 nM.

Q: And the TGI (MDA-MB-231 breast)?
A: Its TGI is 149 nM.

Q: What about the GI50 (TK-10 renal) of the same compound?
A: Its GI50 is 19.1 nM.

Q: And the TGI (TK-10 renal)?
A: The TGI was 35.7 nM.

Q: What about the GI50 (OVCAR-5 ovarian) of the same compound?
A: The GI50 was less than 10 nM.

Q: What about the TGI (OVCAR-5 ovarian) of the same compound?
A: Its TGI is less than 10 nM.

Q: And the GI50 (BT-549 breast)?
A: The GI50 was 17.9 nM.

Q: And the TGI (BT-549 breast)?
A: The TGI was 32.7 nM.
